# Experimental data reported in PubChem BioAssay AID328 (DTP/NCI, 2004).
# Toxic doses and inconclusive results are not listed.
# System: BDF1 mice, P388 leukemia ip, median survival T/C
# Test: NCI In Vivo Anticancer Drug Screen. Data for tumor model P388 Leukemia (intraperitoneal) in B6D2F1 (BDF1) mice
# Details: endpoint: median survival time, higher = longer survival
# In short: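 Read-out is survival of treated animals expressed relative to the vehicle group, as a T/C ratio.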
# [1] = dose: 100.0 mg/kg/injection, schedule: Q04DX003 (ip), vehicle: saline with Tween-80
# [2] = dose: 200.0 mg/kg/injection, schedule: Q04DX003 (ip), vehicle: saline with Tween-80
# [3] = dose: 400.0 mg/kg/injection, schedule: Q04DX003 (ip), vehicle: saline with Tween-80
# [4] = dose: 100.0 mg/kg/injection, schedule: Q01DX009 (ip), vehicle: Klucel (hydroxypropylcellulose) (HPC)
# [5] = dose: 100.0 mg/kg/injection, schedule: Q01DX009 (ip), vehicle: saline with Tween-80
# [6] = dose: 100.0 mg/kg/injection, schedule: Q04DX003 (ip), vehicle: Klucel (hydroxypropylcellulose) (HPC)
# [7] = dose: 200.0 mg/kg/injection, schedule: Q04DX003 (ip), vehicle: Klucel (hydroxypropylcellulose) (HPC)
# [8] = dose: 50.0 mg/kg/injection, schedule: Q01DX009 (ip), vehicle: saline with Tween-80
# [9] = dose: 100.0 mg/kg/injection, schedule: Q01DX001 (ip), vehicle: saline sonified
# [10] = dose: 25.0 mg/kg/injection, schedule: Q01DX009 (ip), vehicle: saline with Tween-80
# [11] = dose: 25.0 mg/kg/injection, schedule: Q04DX003 (ip), vehicle: saline with Tween-80
# [12] = dose: 50.0 mg/kg/injection, schedule: Q04DX003 (ip), vehicle: saline with Tween-80
# [13] = dose: 25.0 mg/kg/injection, schedule: Q01DX009 (ip), vehicle: saline
# [14] = dose: 50.0 mg/kg/injection, schedule: Q01DX009 (ip), vehicle: Klucel (hydroxypropylcellulose) (HPC)
# [15] = dose: 400.0 mg/kg/injection, schedule: Q04DX003 (ip), vehicle: Klucel (hydroxypropylcellulose) (HPC)
# [16] = dose: 25.0 mg/kg/injection, schedule: Q01DX009 (ip), vehicle: Klucel (hydroxypropylcellulose) (HPC)
# [17] = dose: 12.5 mg/kg/injection, schedule: Q01DX009 (ip), vehicle: Klucel (hydroxypropylcellulose) (HPC)
compound,measurement,setting,value
C=C1C(=O)OC2/C=C(\C)CC(O)/C=C(/C)CC(OC(=O)C(O)(CO)C(C)S)C12 (stereo not given),T/C,"dose: 100.0 mg/kg/injection, schedule: Q04DX002 (ip), vehicle: Klucel (hydroxypropylcellulose) (HPC)",120 % of control
same,T/C,"dose: 200.0 mg/kg/injection, schedule: Q04DX002 (ip), vehicle: Klucel (hydroxypropylcellulose) (HPC)",118 % of control
CCCO/C(N)=N/OS(=O)(=O)c1ccccc1,T/C,[1],97 % of control
same,T/C,[2],99 % of control
same,T/C,[3],96 % of control
C(=C\c1cccnc1)/c1ccncc1,T/C,"dose: 66.0 mg/kg/injection, schedule: Q01DX009 (ip), vehicle: Klucel (hydroxypropylcellulose) (HPC)",158 % of control
same,T/C,"dose: 66.0 mg/kg/injection, schedule: Q01DX009 (ip), vehicle: saline with Tween-80",108 % of control
same,T/C,[4],178 % of control
same,T/C,[5],94 % of control
same,T/C,[6],100 % of control
same,T/C,"dose: 150.0 mg/kg/injection, schedule: Q01DX009 (ip), vehicle: Klucel (hydroxypropylcellulose) (HPC)",158 % of control
same,T/C,"dose: 150.0 mg/kg/injection, schedule: Q01DX009 (ip), vehicle: saline with Tween-80",108 % of control
same,T/C,[7],86 % of control
COc1ccc2c(c1OC)CN1CCc3cc4c(cc3C1=C2)OCO4,T/C,"dose: 50.0 mg/kg/injection, schedule: Q01DX005 (ip), vehicle: saline with Tween-80",102 % of control
same,T/C,"dose: 100.0 mg/kg/injection, schedule: Q01DX005 (ip), vehicle: saline with Tween-80",90 % of control
same,T/C,"dose: 200.0 mg/kg/injection, schedule: Q01DX005 (ip), vehicle: saline with Tween-80",91 % of control
O=Nc1c(S(=O)(=O)O)cc2cc(S(=O)(=O)O)cc(O)c2c1O.[Cu+2],T/C,"dose: 1.25 mg/kg/injection, schedule: Q04DX003 (ip), vehicle: saline",97 % of control
same,T/C,"dose: 2.5 mg/kg/injection, schedule: Q04DX003 (ip), vehicle: saline",91 % of control
same,T/C,"dose: 5.0 mg/kg/injection, schedule: Q04DX003 (ip), vehicle: saline",115 % of control
O=C(Nc1cccc(Br)c1)N1c2ccccc2SC12CCCC2,T/C,[8],89 % of control
same,T/C,[5],97 % of control
same,T/C,"dose: 200.0 mg/kg/injection, schedule: Q01DX009 (ip), vehicle: saline with Tween-80",106 % of control
COc1cccc(/C=N\O)c1,T/C,[1],104 % of control
same,T/C,[2],100 % of control
same,T/C,[3],104 % of control
CCCCCCCCCCCCCCCCCOc1ccc2ccccc2c1,T/C,"dose: 25.0 mg/kg/injection, schedule: Q01DX001 (ip), vehicle: saline sonified",100 % of control
same,T/C,"dose: 50.0 mg/kg/injection, schedule: Q01DX001 (ip), vehicle: saline sonified",100 % of control
same,T/C,[9],90 % of control
c1ccc(CC2NCCc3ccccc32)cc1 (stereo not given),T/C,[10],96 % of control
same,T/C,[11],115 % of control
same,T/C,[8],111 % of control
same,T/C,[12],105 % of control
same,T/C,[5],107 % of control
same,T/C,[1],105 % of control
COB(CCCCB(OC)OC)OC,T/C,"dose: 100.0 mg/kg/injection, schedule: Q04DX003 (ip), vehicle: saline sonified",90 % of control
same,T/C,"dose: 200.0 mg/kg/injection, schedule: Q04DX003 (ip), vehicle: saline sonified",86 % of control
same,T/C,"dose: 400.0 mg/kg/injection, schedule: Q04DX003 (ip), vehicle: saline sonified",100 % of control
CC(C)(Br)C(=O)c1ccc([N+](=O)[O-])o1,T/C,"dose: 0.78 mg/kg/injection, schedule: Q01DX009 (ip), vehicle: water",95 % of control
same,T/C,"dose: 1.56 mg/kg/injection, schedule: Q01DX009 (ip), vehicle: water",89 % of control
same,T/C,"dose: 3.12 mg/kg/injection, schedule: Q01DX009 (ip), vehicle: saline",116 % of control
same,T/C,"dose: 3.12 mg/kg/injection, schedule: Q01DX009 (ip), vehicle: water",87 % of control
same,T/C,"dose: 6.25 mg/kg/injection, schedule: Q01DX009 (ip), vehicle: saline",123 % of control
same,T/C,"dose: 6.25 mg/kg/injection, schedule: Q01DX009 (ip), vehicle: water",105 % of control
same,T/C,"dose: 12.5 mg/kg/injection, schedule: Q01DX009 (ip), vehicle: saline with Tween-80",95 % of control
same,T/C,"dose: 12.5 mg/kg/injection, schedule: Q01DX009 (ip), vehicle: water",104 % of control
same,T/C,[10],100 % of control
same,T/C,[13],116 % of control
same,T/C,[11],107 % of control
same,T/C,[8],95 % of control
same,T/C,[12],109 % of control
same,T/C,[5],87 % of control
same,T/C,[1],100 % of control
O=[N+]([O-])CC1CCCCC1O (stereo not given),T/C,"dose: 6.25 mg/kg/injection, schedule: Q04DX003 (ip), vehicle: saline with Tween-80",100 % of control
same,T/C,"dose: 12.5 mg/kg/injection, schedule: Q04DX003 (ip), vehicle: saline with Tween-80",100 % of control
same,T/C,[11],90 % of control
CN1C(=O)CN=C(c2ccc[nH]2)c2cc(Cl)ccc21 (tested in a mixture with another compound),T/C,[14],104 % of control
same,T/C,[4],109 % of control
same,T/C,[6],100 % of control
same,T/C,"dose: 200.0 mg/kg/injection, schedule: Q01DX009 (ip), vehicle: Klucel (hydroxypropylcellulose) (HPC)",100 % of control
same,T/C,[7],104 % of control
same,T/C,[15],90 % of control
Clc1ccc(-c2noc(CN3CCCCC3)n2)cc1,T/C,[8],88 % of control
same,T/C,[5],88 % of control
C[N+](C)(CC(=O)Nc1ccc(Cl)cc1)CC(=O)c1ccc(Cl)c(Cl)c1,T/C,[9],104 % of control
same,T/C,"dose: 200.0 mg/kg/injection, schedule: Q01DX001 (ip), vehicle: saline sonified",95 % of control
same,T/C,"dose: 400.0 mg/kg/injection, schedule: Q01DX001 (ip), vehicle: saline sonified",100 % of control
Cc1cc(NC(=O)NCc2ccc(N3C(N)=NC(N)=NC3(C)C)cc2)ccc1S(=O)(=O)F,T/C,"dose: 2.1 mg/kg/injection, schedule: Q01DX009 (ip), vehicle: saline with Tween-80",108 % of control
same,T/C,"dose: 3.1 mg/kg/injection, schedule: Q01DX009 (ip), vehicle: saline with Tween-80",113 % of control
same,T/C,"dose: 4.8 mg/kg/injection, schedule: Q01DX009 (ip), vehicle: saline",123 % of control
same,T/C,[13],172 % of control
same,T/C,"dose: 45.0 mg/kg/injection, schedule: Q04DX003 (ip), vehicle: saline with Tween-80",150 % of control
same,T/C,"dose: 50.0 mg/kg/injection, schedule: Q01DX009 (ip), vehicle: saline",209 % of control
same,T/C,"dose: 100.0 mg/kg/injection, schedule: Q04DX003 (ip), vehicle: alcohol",115 % of control
same,T/C,"dose: 264.0 mg/kg/injection, schedule: Q04DX003 (ip), vehicle: saline",195 % of control
same,T/C,"dose: 400.0 mg/kg/injection, schedule: Q04DX003 (ip), vehicle: alcohol",155 % of control
CC(=O)O.O=CCO.[C-]#[O+].[C-]#[O+].[C-]#[O+].[C-]#[O+].[Rh].[Rh],T/C,[16],119 % of control
same,T/C,[14],122 % of control
C=CCC(CC)(C(=O)OCC)C(=O)OCC,T/C,"dose: 100.0 mg/kg/injection, schedule: Q01DX009 (ip), vehicle: saline",100 % of control
same,T/C,"dose: 200.0 mg/kg/injection, schedule: Q01DX009 (ip), vehicle: saline",104 % of control
same,T/C,"dose: 400.0 mg/kg/injection, schedule: Q01DX009 (ip), vehicle: saline",122 % of control
CC12CCC3C(CCC4=CC(=O)CCC43C)C1CCC(=O)O2 (stereo not given),T/C,[17],95 % of control
same,T/C,[16],95 % of control
same,T/C,[14],104 % of control
same,T/C,[4],95 % of control
same,T/C,[6],109 % of control
same,T/C,[7],90 % of control
same,T/C,[15],90 % of control
O=[N+]([O-])c1cc(S(=O)(=O)OCC2CO2)ccc1Cl (stereo not given),T/C,"dose: 6.25 mg/kg/injection, schedule: Q01DX009 (ip), vehicle: Klucel (hydroxypropylcellulose) (HPC)",100 % of control
same,T/C,"dose: 12.0 mg/kg/injection, schedule: Q04DX003 (ip), vehicle: Klucel (hydroxypropylcellulose) (HPC)",95 % of control
same,T/C,[17],105 % of control
same,T/C,[16],120 % of control
same,T/C,[6],108 % of control
c1ccc(SCC2c3ccccc3Nc3ccccc32)cc1,T/C,"dose: 100.0 mg/kg/injection, schedule: Q01DX001 (ip), vehicle: saline with Tween-80",109 % of control
same,T/C,"dose: 200.0 mg/kg/injection, schedule: Q01DX001 (ip), vehicle: saline with Tween-80",114 % of control
same,T/C,"dose: 400.0 mg/kg/injection, schedule: Q01DX001 (ip), vehicle: saline with Tween-80",109 % of control
